Measured values published in ChEMBL document CHEMBL5346895, “Small molecule inhibitors of intestinal epithelial anion exchanger SLC26A3 (DRA) with a luminal, extracellular site of action” (Eur J Med Chem, 2023).

Key:
[1] = target: T1, Solute carrier family 26 member 6 (Homo sapiens) (UniProt Q9BXS9); assay: Inhibition of SLC26A6 (unknown origin) at 10 uM by YFP-based assay relative to control
T1 sequence (whole entry): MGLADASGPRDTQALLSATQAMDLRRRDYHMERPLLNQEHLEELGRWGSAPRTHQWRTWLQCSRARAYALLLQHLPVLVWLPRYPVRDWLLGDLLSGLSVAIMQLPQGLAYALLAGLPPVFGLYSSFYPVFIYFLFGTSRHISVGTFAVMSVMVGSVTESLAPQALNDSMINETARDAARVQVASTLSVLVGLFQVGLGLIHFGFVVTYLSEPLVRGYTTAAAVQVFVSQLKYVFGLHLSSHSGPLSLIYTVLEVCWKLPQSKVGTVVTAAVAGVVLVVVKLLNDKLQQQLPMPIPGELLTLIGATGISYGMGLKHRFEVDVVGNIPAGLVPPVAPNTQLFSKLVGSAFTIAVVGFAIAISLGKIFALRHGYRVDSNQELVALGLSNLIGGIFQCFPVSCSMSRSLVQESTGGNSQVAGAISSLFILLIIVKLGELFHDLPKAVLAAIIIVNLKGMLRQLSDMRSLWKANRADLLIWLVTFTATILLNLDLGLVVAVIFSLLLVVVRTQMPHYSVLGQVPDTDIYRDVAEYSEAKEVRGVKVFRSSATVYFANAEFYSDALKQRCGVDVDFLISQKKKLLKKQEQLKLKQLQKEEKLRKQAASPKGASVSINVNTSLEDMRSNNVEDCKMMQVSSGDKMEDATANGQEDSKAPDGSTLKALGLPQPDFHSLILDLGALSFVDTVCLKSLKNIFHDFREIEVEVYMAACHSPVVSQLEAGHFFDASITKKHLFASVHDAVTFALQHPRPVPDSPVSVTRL

[2] = target: T2, Anoctamin-1 (Homo sapiens) (UniProt Q5XXA6); assay: Inhibition of TMEM16A (unknown origin) at 10 uM by YFP-based assay relative to control
T2 sequence (whole entry): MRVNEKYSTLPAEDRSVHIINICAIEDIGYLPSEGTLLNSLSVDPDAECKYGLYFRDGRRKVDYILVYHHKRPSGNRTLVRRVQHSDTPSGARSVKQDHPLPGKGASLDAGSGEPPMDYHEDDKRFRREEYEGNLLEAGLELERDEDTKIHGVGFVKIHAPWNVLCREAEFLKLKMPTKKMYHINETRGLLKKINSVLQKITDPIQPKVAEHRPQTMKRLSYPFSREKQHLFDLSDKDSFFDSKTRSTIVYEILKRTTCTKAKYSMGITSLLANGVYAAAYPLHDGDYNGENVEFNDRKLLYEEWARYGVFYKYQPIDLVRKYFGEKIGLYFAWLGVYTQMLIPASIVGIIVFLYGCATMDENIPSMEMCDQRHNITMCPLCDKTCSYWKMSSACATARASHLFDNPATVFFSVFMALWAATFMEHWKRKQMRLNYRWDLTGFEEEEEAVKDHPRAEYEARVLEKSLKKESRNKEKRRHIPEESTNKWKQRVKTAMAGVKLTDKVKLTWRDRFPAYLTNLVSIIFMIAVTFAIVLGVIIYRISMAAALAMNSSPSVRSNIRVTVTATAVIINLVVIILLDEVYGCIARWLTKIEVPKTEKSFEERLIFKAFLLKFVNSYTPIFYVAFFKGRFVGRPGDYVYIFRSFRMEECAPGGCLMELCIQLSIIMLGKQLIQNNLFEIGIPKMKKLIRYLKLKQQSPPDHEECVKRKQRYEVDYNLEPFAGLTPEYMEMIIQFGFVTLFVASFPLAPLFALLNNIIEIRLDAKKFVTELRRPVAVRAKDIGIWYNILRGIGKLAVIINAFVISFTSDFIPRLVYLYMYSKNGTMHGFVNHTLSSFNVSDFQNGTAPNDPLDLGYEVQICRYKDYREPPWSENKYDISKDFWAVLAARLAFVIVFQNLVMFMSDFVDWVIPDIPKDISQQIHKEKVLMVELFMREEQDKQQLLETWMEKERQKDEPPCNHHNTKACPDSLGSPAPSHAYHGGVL

[3] = target: T3, Solute carrier family 26 member 9 (Homo sapiens) (UniProt Q7LBE3); assay: Inhibition of SLC26A9 (unknown origin) at 10 uM by YFP-based assay relative to control
T3 sequence (whole entry): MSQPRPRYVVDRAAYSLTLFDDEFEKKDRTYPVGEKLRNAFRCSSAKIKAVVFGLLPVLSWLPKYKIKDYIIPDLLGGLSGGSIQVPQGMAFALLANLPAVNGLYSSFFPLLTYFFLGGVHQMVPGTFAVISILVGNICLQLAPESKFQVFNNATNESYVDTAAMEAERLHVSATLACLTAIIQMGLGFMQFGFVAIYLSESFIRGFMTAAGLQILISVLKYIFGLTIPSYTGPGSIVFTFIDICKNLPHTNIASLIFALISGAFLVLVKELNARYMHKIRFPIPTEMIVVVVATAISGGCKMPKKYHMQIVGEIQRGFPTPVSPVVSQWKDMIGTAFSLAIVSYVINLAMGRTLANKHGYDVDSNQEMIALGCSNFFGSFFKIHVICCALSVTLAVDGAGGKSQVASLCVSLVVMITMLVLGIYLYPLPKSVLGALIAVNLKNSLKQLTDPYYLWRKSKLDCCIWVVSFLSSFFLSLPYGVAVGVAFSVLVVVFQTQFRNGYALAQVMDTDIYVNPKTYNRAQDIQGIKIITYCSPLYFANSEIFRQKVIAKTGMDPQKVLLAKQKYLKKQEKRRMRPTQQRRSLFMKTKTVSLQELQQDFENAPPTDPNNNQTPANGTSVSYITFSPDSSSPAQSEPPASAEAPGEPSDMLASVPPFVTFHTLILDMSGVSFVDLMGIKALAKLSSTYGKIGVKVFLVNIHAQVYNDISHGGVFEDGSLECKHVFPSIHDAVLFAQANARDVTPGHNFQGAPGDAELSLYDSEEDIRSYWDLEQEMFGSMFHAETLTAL

Row | inhibition [1] [%] | inhibition [2] [%] | inhibition [3] [%] | Compound
1 | 32 | 83 | -2 | Cc1cc(C)cc(N(C)S(=O)(=O)c2nnc(NC(=O)COc3ccc(C)c(C)c3)s2)c1
2 | 9 | 4 | 22 | O=c1cc(COc2ccccc2Cl)nc2scc(-c3ccccc3)n12
3 | 4 | -1 | -2 | O=C(Nc1cccc(-c2nc3ccccc3c(=O)o2)c1)c1ccc(Cl)cc1
4 | 37 | 2 | -8 | Cc1ccccc1COc1ccc2oc(-c3ccccc3)c(C(=O)O)c2c1
